Key:
[1] = Stability test: UV-visible spectrum change over time in aqueous solution; format: physicochemical
Method: Specifically, the UV-visible spectrum of an aqueous solution of 1 mg of each osmium complex, ruthenium hexamine, and Ferricyanide dissolved in 1 mL of 0.1 M PBS (pH 7.4) was measured and stored at room temperature for 11 days.

[2] = system: FAD-glucose dehydrogenase (FAD-GDH); format: biochemical; conditions: pH 7.4
Method: To verify the electrochemical properties of osmium complex, cyclic voltammetry was performed. Using a carbon electrode as the working electrode, platinum as the auxiliary electrode, and an Ag/AgCl (sat. KCl) electrode as a reference electrode, the current was measured by changing the glucose concentration in a mixed solution including FAD-glucose dehydrogenase (FAD-GDH) 10 mg/mL, osmium complex 30 mmol and 0.1 M PBS (pH 7.4).

[3] = Description: In subsequent examples, an osmium complex sodium salt was used by substituting the osmium complex with NaOH at 1:3 equivalent ratios.

Molecule | UV-visible spectrum change over time ([1]; 1 mg in 1 mL 0.1 M PBS (pH 7.4), room temperature, 11 days) | response slope [2] | solubility in water [3] | UV-visible spectrum change over time ([1]; pH 7.4)
N.N.N.N.N.N.[Cl-].[Cl-].[Cl-].[Ru+3] [ruthenium hexamine, Hexamine ruthenium chloride [Ru(NH3)6Cl3], reference compound] | no change in the UV-visible spectrum was observed over time |  |  | 
Os(dcbpy)2Cl2 [osmium complex] |  | 77.1 nA/(mg/dL) | low solubility in water | the absorbance of absorption peaks at 400 nm and 520 mm decreased with time

Reference: patent US10890557B2, “Electrochemical biosensor” (I-SENS, INC., priority 2014, dated 2021)
